Source: patent US20230233569A1 (Revolution Medicines, Inc., priority 2020, published 2023)
Where two headings read alike, the source gives them in different places.

Tests used:
NRAS WT = NRAS WT (Homo sapiens, UniProt P01111+P62937); assay: Disruption of BRAF RBD interaction with Ras (FRET / MOA assay, with Cyclophilin A); format: biochemical; conditions: NRAS WT; read-out: NRAS WT FRET data IC50
How it was run: (§1)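 IC50 reflects compound-driven Ras:Cyclophilin A ternary complex displacing BRAF RBD, read as lowered TR-FRET ratio relative to DMSO after Eu anti-His (10 nM) and APC anti-GST (50 nM) detection for 1.5 h. Prior incubation 3 h, 25° C, with 12.5 nM GMPPNP-loaded Ras, 50 nM BRAF RBD, 25 μM Cyclophilin A; top compound 30 μM.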

NRAS Q61R = NRAS Q61R (Homo sapiens, UniProt P01111+P62937, Q61R); assay: as above; format: biochemical; conditions: NRAS Q61R; read-out: NRAS Q61R FRET data IC50
How it was run: as §1

KRAS Q61H = KRAS Q61H (Homo sapiens, UniProt P01116+P62937, Q61H); assay: as above; format: biochemical; conditions: KRAS Q61H; read-out: KRAS Q61H FRET data IC50
How it was run: as §1

NRAS Q61K = NRAS Q61K (Homo sapiens, UniProt P01111+P62937, Q61K); assay: as above; format: biochemical; conditions: NRAS Q61K; read-out: NRAS Q61K FRET data IC50
How it was run: as §1

Capan-1 (K-Ras G12V) = assay: CellTiter-Glo cell viability assay, 5-day treatment; format: cell-based; conditions: Homo sapiens, CAPAN-1, 120 h, 5-day treatment; read-out: Capan-1 Cell Viability assay data (K-Ras G12V, IC50)
How it was run: (§2)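 Five-day compound treatment of plated cells; luminescent read after ~30 min at RT. Percent-of-DMSO data fit to a four-parameter logistic model.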

NCI-H358 (K-Ras G12C) = assay: as above; format: cell-based; conditions: Homo sapiens, NCI-H358, 120 h, 5-day treatment; read-out: H358 Cell Viability assay data (K-Ras G12C, IC50)
How it was run: as §2

KRAS G12S = KRAS G12S (Homo sapiens, UniProt P01116+P62937, G12S); assay: Disruption of BRAF RBD interaction with Ras (FRET / MOA assay, with Cyclophilin A); format: biochemical
How it was run: (§3)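 TR-FRET readout: a drop in ratio relative to DMSO wells marks disruption of the K-Ras:BRAF RBD complex via compound-induced K-Ras–Cyclophilin A ternary complex. Dosing used ten 3-fold steps from 30 μM final, 3 h at 25 °C, then Eu-anti-His 10 nM plus APC-anti-GST 50 nM for another 1.5 h. Values are IC50s.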

KRAS G12C = KRAS G12C (Homo sapiens, UniProt P01116+P62937, G12C); assay: as above; format: biochemical
How it was run: as §3

KRAS G13C = KRAS G13C (Homo sapiens, UniProt P01116+P62937, G13C); assay: as above; format: biochemical
How it was run: as §3

KRAS WT = KRAS WT (Homo sapiens, UniProt P01116+P62937); assay: as above; format: biochemical
How it was run: as §3

KRAS G12V = KRAS G12V (Homo sapiens, UniProt P01116+P62937, G12V); assay: as above; format: biochemical
How it was run: as §3

KRAS G12D = KRAS G12D (Homo sapiens, UniProt P01116+P62937, G12D); assay: as above; format: biochemical
How it was run: as §3

KRAS G13D = KRAS G13D (Homo sapiens, UniProt P01116+P62937, G13D); assay: as above; format: biochemical
How it was run: as §3

NRAS G12C = NRAS G12C (Homo sapiens, UniProt P01111+P62937, G12C); assay: as above; format: biochemical
[1] = read-out: KRAS G12S FRET data, IC50
[2] = read-out: KRAS G12C FRET data, IC50
[3] = read-out: KRAS G13C FRET data, IC50
[4] = KRAS WT, read-out: KRAS WT FRET data IC50
[5] = KRAS G12V, read-out: KRAS G12V FRET data IC50
[6] = read-out: KRAS G12D FRET data, IC50
[7] = KRAS G13D, read-out: KRAS G13D FRET data IC50
[8] = NRAS G12C, read-out: NRAS G12C FRET data IC50

Sequence of KRAS G12D (P01116 1-169 isoform P01116-2 G12D limits assumed): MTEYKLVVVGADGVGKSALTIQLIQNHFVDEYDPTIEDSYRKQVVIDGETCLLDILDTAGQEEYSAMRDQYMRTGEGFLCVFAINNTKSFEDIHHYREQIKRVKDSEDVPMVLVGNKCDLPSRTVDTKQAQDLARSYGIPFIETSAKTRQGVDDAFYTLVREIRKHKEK
Sequence of KRAS G12D (P62937 whole entry): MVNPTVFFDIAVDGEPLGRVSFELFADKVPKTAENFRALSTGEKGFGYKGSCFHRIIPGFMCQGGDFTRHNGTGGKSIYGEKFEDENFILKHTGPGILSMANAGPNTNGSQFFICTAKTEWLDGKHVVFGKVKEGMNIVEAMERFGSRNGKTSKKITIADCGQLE
Sequence of NRAS Q61K (P01111 whole entry Q61K): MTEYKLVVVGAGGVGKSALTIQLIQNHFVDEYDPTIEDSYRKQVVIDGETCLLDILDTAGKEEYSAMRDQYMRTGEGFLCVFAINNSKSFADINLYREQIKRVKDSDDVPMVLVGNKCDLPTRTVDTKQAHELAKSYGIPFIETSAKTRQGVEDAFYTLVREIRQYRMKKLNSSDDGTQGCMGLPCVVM
Sequence of NRAS Q61K (P62937 whole entry): as the sequence (P62937 whole entry) above
Sequence of KRAS G12C (P01116 1-169 isoform P01116-2 G12C): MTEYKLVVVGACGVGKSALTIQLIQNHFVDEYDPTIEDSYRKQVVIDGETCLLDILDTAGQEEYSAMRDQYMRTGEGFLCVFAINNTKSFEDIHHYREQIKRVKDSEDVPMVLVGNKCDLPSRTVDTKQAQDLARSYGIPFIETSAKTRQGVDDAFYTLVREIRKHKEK
Sequence of KRAS G12C (P62937 whole entry): as the sequence (P62937 whole entry) above
Sequence of KRAS G12S (P01116 1-169 isoform P01116-2 G12S limits assumed): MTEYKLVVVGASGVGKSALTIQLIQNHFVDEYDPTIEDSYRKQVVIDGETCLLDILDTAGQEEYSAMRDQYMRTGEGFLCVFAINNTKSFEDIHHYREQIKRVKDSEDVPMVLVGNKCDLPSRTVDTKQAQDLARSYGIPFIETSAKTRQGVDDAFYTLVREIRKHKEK
Sequence of KRAS G12S (P62937 whole entry): as the sequence (P62937 whole entry) above
Sequence of NRAS Q61R (P01111 whole entry Q61R): as the sequence (P01111 whole entry Q61K) above, with K61R counted along it
Sequence of NRAS Q61R (P62937 whole entry): as the sequence (P62937 whole entry) above
Sequence of KRAS G13D (P01116 1-169 isoform P01116-2 G13D limits assumed): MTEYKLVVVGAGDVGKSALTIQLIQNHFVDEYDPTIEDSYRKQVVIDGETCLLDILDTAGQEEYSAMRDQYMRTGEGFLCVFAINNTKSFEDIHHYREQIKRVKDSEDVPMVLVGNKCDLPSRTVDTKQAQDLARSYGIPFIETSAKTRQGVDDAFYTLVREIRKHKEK
Sequence of KRAS G13D (P62937 whole entry): as the sequence (P62937 whole entry) above
Sequence of NRAS WT (P01111 whole entry): as the sequence (P01111 whole entry Q61K) above, with K61Q counted along it
Sequence of NRAS WT (P62937 whole entry): as the sequence (P62937 whole entry) above
Sequence of KRAS Q61H (P01116 1-169 isoform P01116-2 Q61H limits assumed): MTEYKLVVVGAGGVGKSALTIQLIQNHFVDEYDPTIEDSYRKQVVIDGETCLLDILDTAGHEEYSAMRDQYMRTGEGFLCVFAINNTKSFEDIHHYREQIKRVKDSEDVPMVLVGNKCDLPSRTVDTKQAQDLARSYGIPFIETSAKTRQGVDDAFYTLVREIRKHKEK
Sequence of KRAS Q61H (P62937 whole entry): as the sequence (P62937 whole entry) above
Sequence of NRAS G12C (P01111 whole entry G12C): as the sequence (P01111 whole entry Q61K) above, with G12C, K61Q counted along it
Sequence of NRAS G12C (P62937 whole entry): as the sequence (P62937 whole entry) above
Sequence of KRAS WT (P01116 1-169 isoform P01116-2 limits assumed): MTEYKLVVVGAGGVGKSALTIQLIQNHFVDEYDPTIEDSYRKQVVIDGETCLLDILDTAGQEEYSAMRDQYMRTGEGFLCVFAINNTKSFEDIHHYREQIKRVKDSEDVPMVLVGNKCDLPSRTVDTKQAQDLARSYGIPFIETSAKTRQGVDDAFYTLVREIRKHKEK
Sequence of KRAS WT (P62937 whole entry): as the sequence (P62937 whole entry) above
Sequence of KRAS G12V (P01116 1-169 isoform P01116-2 G12V limits assumed): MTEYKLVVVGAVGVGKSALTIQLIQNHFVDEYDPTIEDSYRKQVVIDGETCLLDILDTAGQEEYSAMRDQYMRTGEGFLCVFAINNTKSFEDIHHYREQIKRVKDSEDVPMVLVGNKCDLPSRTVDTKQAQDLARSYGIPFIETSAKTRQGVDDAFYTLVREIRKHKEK
Sequence of KRAS G12V (P62937 whole entry): as the sequence (P62937 whole entry) above
Sequence of KRAS G13C (P01116 1-169 isoform P01116-2 G13C): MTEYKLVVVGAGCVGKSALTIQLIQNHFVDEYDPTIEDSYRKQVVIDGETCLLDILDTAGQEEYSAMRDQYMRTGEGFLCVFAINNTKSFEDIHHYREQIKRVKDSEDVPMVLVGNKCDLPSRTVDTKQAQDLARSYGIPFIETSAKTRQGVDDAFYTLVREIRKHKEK
Sequence of KRAS G13C (P62937 whole entry): as the sequence (P62937 whole entry) above

CCn1c(-c2cccnc2[C@H](C)OC)c2c3cc(ccc31)-c1csc(n1)C[C@H](NC(=O)[C@H](C(C)C)N(C)C(=O)N1CCN3CCOC[C@@H]3C1)C(=O)N1CCC[C@H](N1)C(=O)OCC(C)(C)C2 [Example A547]
IC50 (NRAS WT): 100 to 1000 nM
IC50 (NRAS Q61R): 100 to 1000 nM
IC50 (KRAS Q61H): 100 to 1000 nM
IC50 (NRAS Q61K): 100 to 1000 nM
IC50 (Capan-1 (K-Ras G12V)): 10 to 100 nM
IC50 (NCI-H358 (K-Ras G12C)): 10 to 100 nM
IC50 (KRAS G12S; [1]): 100 to 1000 nM
IC50 (KRAS G12C; [2]): 100 to 1000 nM
IC50 (KRAS G13C; [3]): 100 to 1000 nM
IC50 (KRAS WT; [4]): 100 to 1000 nM
IC50 (KRAS G12V; [5]): 100 to 1000 nM
IC50 (KRAS G12D; [6]): 1000 to 10000 nM
IC50 (KRAS G13D; [7]): 1000 to 10000 nM
IC50 (NRAS G12C; [8]): 100 to 1000 nM

CCn1c(-c2cccnc2[C@H](C)OC)c2c3cc(ccc31)-c1csc(n1)C[C@H](NC(=O)[C@H](C(C)C)N(C)C(=O)N1CCN3CCOC[C@H]3C1)C(=O)N1CCC[C@H](N1)C(=O)OCC(C)(C)C2 [Example A548]
IC50 (NRAS WT): 100 to 1000 nM
IC50 (NRAS Q61R): 100 to 1000 nM
IC50 (KRAS Q61H): 100 to 1000 nM
IC50 (NRAS Q61K): 100 to 1000 nM
IC50 (Capan-1 (K-Ras G12V)): 10 to 100 nM
IC50 (NCI-H358 (K-Ras G12C)): 10 to 100 nM
IC50 (KRAS G12S; [1]): 1000 to 10000 nM
IC50 (KRAS G12C; [2]): 100 to 1000 nM
IC50 (KRAS G13C; [3]): 100 to 1000 nM
IC50 (KRAS WT; [4]): 100 to 1000 nM
IC50 (KRAS G12V; [5]): 100 to 1000 nM
IC50 (KRAS G12D; [6]): 1000 to 10000 nM
IC50 (KRAS G13D; [7]): 1000 to 10000 nM
IC50 (NRAS G12C; [8]): 100 to 1000 nM

CCn1c(-c2cccnc2[C@H](C)OC)c2c3cc(ccc31)-c1csc(n1)C[C@H](NC(=O)[C@H](C(C)C)N(C)C(=O)N1CCN(C)CC1)C(=O)N1CCC[C@H](N1)C(=O)OCC(C)(C)C2 [Example A570]
IC50 (NRAS WT): 100 to 1000 nM
IC50 (NRAS Q61R): 100 to 1000 nM
IC50 (KRAS Q61H): 100 to 1000 nM
IC50 (NRAS Q61K): 100 to 1000 nM
IC50 (Capan-1 (K-Ras G12V)): 10 to 100 nM
IC50 (NCI-H358 (K-Ras G12C)): 10 to 100 nM
IC50 (KRAS G12S; [1]): 100 to 1000 nM
IC50 (KRAS G12C; [2]): 100 to 1000 nM
IC50 (KRAS G13C; [3]): 100 to 1000 nM
IC50 (KRAS WT; [4]): 100 to 1000 nM
IC50 (KRAS G12V; [5]): 100 to 1000 nM
IC50 (KRAS G12D; [6]): 1000 to 10000 nM
IC50 (KRAS G13D; [7]): 100 to 1000 nM
IC50 (NRAS G12C; [8]): 100 to 1000 nM

CCn1c(-c2cccnc2[C@H](C)OC)c2c3cc(ccc31)-c1csc(n1)C[C@H](NC(=O)[C@H](C(C)C)N(C)C(=O)N1CCOC[C@@H]1CN(C)C)C(=O)N1CCC[C@H](N1)C(=O)OCC(C)(C)C2 [Example A572]
IC50 (NRAS WT): 1000 to 10000 nM
IC50 (NRAS Q61R): 1000 to 10000 nM
IC50 (KRAS Q61H): 100 to 1000 nM
IC50 (NRAS Q61K): 1000 to 10000 nM
IC50 (Capan-1 (K-Ras G12V)): 1000 to 10000 nM
IC50 (NCI-H358 (K-Ras G12C)): 100 to 1000 nM
IC50 (KRAS G12S; KRAS G12S FRET data, IC50): 1000 to 10000 nM
IC50 (KRAS G12C; KRAS G12C FRET data, IC50): 1000 to 10000 nM
IC50 (KRAS G13C; KRAS G13C FRET data, IC50): 1000 to 10000 nM
IC50 (KRAS WT; KRAS WT FRET data IC50, KRAS WT): 1000 to 10000 nM
IC50 (KRAS G12V; KRAS G12V FRET data IC50, KRAS G12V): 1000 to 10000 nM
IC50 (KRAS G12D; KRAS G12D FRET data, IC50): 1000 to 10000 nM
IC50 (KRAS G13D; KRAS G13D FRET data IC50, KRAS G13D): 1000 to 10000 nM
IC50 (NRAS G12C; NRAS G12C FRET data IC50, NRAS G12C): 1000 to 10000 nM

CCn1c(-c2cccnc2[C@H](C)OC)c2c3cc(ccc31)-c1csc(n1)C[C@H](NC(=O)[C@H](C(C)C)N(C)C(=O)N1CCC[C@@H](CN(C)C)C1)C(=O)N1CCC[C@H](N1)C(=O)OCC(C)(C)C2 [Example A574]
IC50 (NRAS WT): 10 to 100 nM
IC50 (NRAS Q61R): 100 to 1000 nM
IC50 (KRAS Q61H): 10 to 100 nM
IC50 (NRAS Q61K): 10 to 100 nM
IC50 (Capan-1 (K-Ras G12V)): 10 to 100 nM
IC50 (NCI-H358 (K-Ras G12C)): 10 to 100 nM
IC50 (KRAS G12S; [1]): 100 to 1000 nM
IC50 (KRAS G12C; [2]): 10 to 100 nM
IC50 (KRAS G13C; [3]): 100 to 1000 nM
IC50 (KRAS WT; [4]): 10 to 100 nM
IC50 (KRAS G12V; [5]): 100 to 1000 nM
IC50 (KRAS G12D; [6]): 100 to 1000 nM
IC50 (KRAS G13D; [7]): 100 to 1000 nM
IC50 (NRAS G12C; [8]): 10 to 100 nM
